Laboratory results from patent US11357817B2, “Immunoproteasome inhibitor” (The Regents of the University of California, priority 2017, dated 2022).

What was measured:
[1] = test system: ABC16-Monster yeast cells; test: microbe, parasite or virus in culture; type: cell-based, S. cerevisiae; details: Saccharomyces cerevisiae
Experimental: ABC16-Monster yeast cells (15) were inoculated into 5 ml of liquid YPD media and grown to saturation (OD600>1.0) overnight at 200 RPM in a shaking incubator at 30° C. Cultures were diluted to OD600 0.005 to log phase. 100 μl of yeast cells were added to a 96-well plate and incubated with compound starting with a concentration of 150 μM, followed by 1:2 serial dilutions. An initial reading of OD600 (t=0 hrs) was recorded using a Synergy HT spectrophotometer, and cells were grown for a period of 18 hours at 30° C. After incubation, plates were read at OD600. Cells grown in the absence of compound were used as a negative control. Percent growth was calculated using the formula Ab600treated/Ab600control×100
IC50 values were determined by first subtracting the OD600 values at t=0 from those of the final reading and then using Graphpad Prism to calculate nonlinear regression on log(inhibitor) vs. response with variable slope (four parameters).
Each selection was cultured under vigorous shaking until the culture reached saturation. […] Single colonies were isolated, and IC50 assays were performed to determine the degree of evolved resistance vs. that of the parental strain.

[2] = molecular target: T1, c20S (Homo sapiens, UniProt P20618+P28074); test: Calculation of inhibition constants (inactivation kinetics), c20S; type: biochemical; details: for Ki: c20S
T1 construct: purchased Boston Biochem
Experimental: (§1) The rate of AMC release was calculated in the presence of serial dilution of each inhibitor. The rate of product formation were calculated at 30 min intervals for 4 hours, and normalized to activity DMSO control to calculate inactivation curves. Kobs values for each inhibitor concentration were calculated from inactivation curves, and inhibition constants KI and kinact were calculated by non-linear regression of Kobs and inhibitor concentration using GraphPad Prism 6 software.

[3] = test system: 20S Plasmodium proteasome (Pf20S) β5 subunit; test: Proteasome activity assay, Pf20S β5 (suc-LLVY-AMC); type: biochemical, Plasmodium falciparum; details: 150 nM inhibitor
Experimental: (§2) Asynchronous P. falciparum cultures were grown up to 4-5% parasitemia, in 300 mL of RPMI media at 5.0% hematocrit. Cultures were then transferred to 50 mL conical tubes, pelleted via centrifugation at 800 g for 5 min, and washed once with 1×PBS and pelleted again as above. The PBS was removed and lysis buffer (0.15% saponin in PBS) was added on ice in 10 pellet volumes. Upon lysis of red blood cells, indicated by a clear red supernatant, the lysed cultures were centrifuged at 3200×g for 12 minutes at 4° C. The supernatant was removed by aspiration and the cells were washed twice using chilled PBS in microcentrifuge tubes. The cell pellets were then incubated on ice for 1 hour with occasional vortexing in a buffer consisting of 20 mM Tris-HCl pH 7.5, 5 mM MgCl2, 1 mM DTT, 100 μM E-64 and 1 mM AEBSF. This sample was then subjected to 3 rounds of freezing (−80° C.) and thawing (37° C.) and centrifugation at 6000×g for 10 min. The supernatant containing soluble P. falciparum protein was quantified by the BCA method (Pierce).
P. falciparum proteasome was enriched by two-chromatographic steps reported previously (10). In brief, 10 mg of P. falciparum protein was concentrated to 1 mL using a 100 kDa centrifugal filter unit (Amicon) and loaded onto a 5 mL anion exchange HiTrap DEAE FF column (GE Healthcare). […] The AMC fluorophore release was monitored at Ex 340/Em 465 nm at 24° C. using a Synergy HTX multi-mode reader (Biotek). […] Proteins were eluted using 20 mM Tris-HCl pH 7.5, 100 mM NaCl, 10% glycerol and 1 mL fractions were collected, evaluated for protease activity and pooled.
To estimate the concentration of Pf20S in the final pooled sample, protein was denatured and loaded into a 4-12% Bis-Tris Plus gel (Thermo Fisher Scientific) beside 60 to 100 ng of human constitutive proteasome (Boston Biochem). […] For inhibition assays, inhibitor and substrate were added simultaneously to the enzyme and the rate of AMC release was determined from 60 to 120 minutes and compared to a DMSO control.

[4] = molecular target: Pf20S (Plasmodium falciparum, UniProt A0A5K1K7U1+Q8IJT1); test: Calculation of inhibition constants (inactivation kinetics), Pf20S; type: biochemical; details: Pf20S
Chain of Pf20S (A0A5K1K7U1 entry or part of it): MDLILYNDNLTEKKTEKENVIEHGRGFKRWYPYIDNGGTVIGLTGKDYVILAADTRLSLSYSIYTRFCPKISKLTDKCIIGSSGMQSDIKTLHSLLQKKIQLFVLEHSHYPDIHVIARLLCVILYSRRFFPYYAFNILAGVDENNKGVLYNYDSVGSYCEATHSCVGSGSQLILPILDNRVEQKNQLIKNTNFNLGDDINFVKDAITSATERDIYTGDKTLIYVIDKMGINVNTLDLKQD
Chain of Pf20S (Q8IJT1 entry or part of it): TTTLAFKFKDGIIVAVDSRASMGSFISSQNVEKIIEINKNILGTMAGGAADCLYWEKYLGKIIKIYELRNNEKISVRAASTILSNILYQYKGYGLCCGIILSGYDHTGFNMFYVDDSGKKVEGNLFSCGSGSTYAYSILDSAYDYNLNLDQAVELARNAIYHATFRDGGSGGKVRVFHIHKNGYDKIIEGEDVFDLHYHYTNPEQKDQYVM
Experimental: as §1

[5] = test system: 20S Plasmodium proteasome (Pf20S) β2 subunit; test: Proteasome activity assay, Pf20S β2 (z-LRR-AMC); type: biochemical; details: 150 nM inhibitor
Experimental: as §2, with “Cultures were then transferred to 50 mL conical tubes, pelleted via centrifugation at 800 g for 5 min, and washed once with 1×PBS and pelleted again as above.” left out
(§3) P. falciparum proteasome was enriched by two-chromatographic steps reported previously (10). […] The AMC fluorophore release was monitored at Ex 340/Em 465 nm at 24° C. using a Synergy HTX multi-mode reader (Biotek). […] Proteins were eluted using 20 mM Tris-HCl pH 7.5, 100 mM NaCl, 10% glycerol and 1 mL fractions were collected, evaluated for protease activity and pooled. […]

[6] = test system: 20S Plasmodium proteasome (Pf20S) β1 subunit; test: Proteasome activity assay, Pf20S β1 (z-LLE-AMC); type: biochemical, Plasmodium falciparum; details: 150 nM inhibitor
Experimental: as §2, with “Cultures were then transferred to 50 mL conical tubes, pelleted via centrifugation at 800 g for 5 min, and washed once with 1×PBS and pelleted again as above.” left out
as §3

[7] = test system: Dd2 parasites; test: Artemisinin synergy, 72 hour SYBR green assay with co-treatment; type: cell-based, Plasmodium falciparum
Experimental: (§4) Compound susceptibility was measured using the malaria SYBR Green I-based fluorescence assay (32). Asynchronous P. falciparum parasites (Dd2 strain) were cultured in standard conditions before being plated for the assays. Each compound was tested over 72 hours in technical duplicates on a twelve-point concentration curve prepared by three-fold dilution from 6.7 μM to 0.11 nM. At least three independent experiments were carried out for IC50 determination. Artemisinin and chloroquine were used as controls. IC50 values were obtained using normalized fluorescence intensity from SYBR green I and analyzed via non-linear variable slope four-parameter regression curve-fitting model in Prism 6 (GraphPad Software Inc).

[8] = test system: HepG2 cells; test: HepG2 cytotoxicity assay; type: cell-based; details: Homo sapiens
Experimental: The liver-stage and HepG2 toxicity assays were performed as previously reported (35). Briefly, HepG2-A16-CD81EGFP, human hepatocarcinoma HepG2 cells stably transformed to express the tetraspanin CD81 receptor (36, 37) and thus susceptible to P. berghei infection, were cultured at 37° C. in 5% CO2 in DMEM (Life Technologies, Calif.) supplemented with 10% FBS, 0.29 mg/ml glutamine, 100 unit penicillin and 100 μg/ml streptomycin. For both the P. berghei-luciferase and HepG2 cytotoxicity assays, 3×10^3 of the HepG2-A16-CD81EGFP cells in 5 μl of assay medium (DMEM without Phenol Red (Life Technologies, Calif.), 5% FBS, and 5× Pen Strep Glutamine (Life Technologies, Calif.)) at concentration 6×10^5 cells/ml were seeded in 1536-well plates (Greiner BioOne white solid bottom custom GNF mold) 20-26 hours prior to the actual infection. 18 hours prior to infection, 50 nl of compound in DMSO (0.5% final DMSO concentration per well) were transferred with Acoustic Transfer System (ATS) (Biosero) into the assay plates. Atovaquone (12-point serial dilution starting at 10 μM) and Puromycin (12-point serial dilution starting at 10 μM) were used as positive controls for Pb. liver stage assay and HepG2 cytotoxicity respectively. 0.5% DMSO was used as negative control for the both assays.
An. stephensi mosquitoes, infected with P. berghei-luciferase, were provided by the New York University Insectary. P. berghei-luciferase sporozoites were freshly dissected from the infected A. stephensi mosquito salivary glands, filtered twice through a 20 μm nylon net filter using Steriflip Vacuum-Driven Filtration System (Millipore), counted in a hemocytometer, and then adjusted to final concentration 200 sporozoites per μl in the assay media. […] The HepG2-A16-CD81EGFP cell designated for toxicity studies were left uninfected, with 5 ul of additional assay media added to each well to maintain equal concentrations of compounds with P. berghei-luciferase infected plates. After incubation at 37° C. for 48 hours the exoerythrocytic growth and HepG2-A16-CD81EGFP cell viability were quantified by a bioluminescence measurement.
The HepG2 cytotoxicity was assessed by removing the media through an inverted spin of the plates at 150 g for 30 s and addition of 2 μL of CellTiterGlo reagent (Promega diluted 1:2 with deionized water) per well using the MicroFlo liquid handler (BioTek). Immediately after addition of the luminescence reagent, the plates were vortexed for 10 s and read with an EnVision Multilabel reader (PerkinElmer). IC50 values were obtained as above.

[9] = test system: P. falciparum Dd2; test: P. falciparum Dd2 asexual blood stage SYBR Green I compound sensitivity assay; type: cell-based, Plasmodium falciparum; details: for IC50: Plasmodium falciparum, DD2, 72 h, asexual blood stage, 72 hour SYBR green assay; for Selectivity Index: P. falciparum activity versus HepG2 activity
Experimental: P. falciparum Dd2 strain parasites were cultured under standard conditions (31), using RPMI media supplemented with 0.05 mg/ml gentamycin, 0.014 mg/mL hypoxanthine (prepared fresh), 38.4 mM HEPES, 0.2% Sodium Bicarbonate, 3.4 mM Sodium Hydroxide, 0.05% O+ Human Serum (Denatured at […] for 40 min and From Interstate Blood Bank, Memphis, Tenn.) and 0.0025% Albumax). Human O+ whole blood was obtained from TSRI blood bank (La Jolla, Calif.). Leukocyte-free erythrocytes are stored at 50% hematocrit in RPMI-1640 screening media (as above, but without O+ human serum and with 2× albumax concentration) at 4° C. for one to three weeks before experimental use. Cultures were monitored every one to two days via Giemsa-stained thin smears.
as §4

SMILES	IC50 [9]	Ki [2]	Ki [4]	IC50 [8]	Selectivity Index [9]	other results
CCCCCC(=O)N[C@H](C(=O)N[C@@H](CCS(C)(=O)=O)C(=O)N[C@@H](CC(C)C)C(=O)[C@@]1(C)CO1)C(C)C [Carmaphycin B]		375 nM	223 nM			IC50 ([1]; GM (parental ABC16-Monster strain)): 24300 nM; IC50 ([1]; resistant Lineage 1): > 150000 nM; IC50 ([1]; resistant Lineage 2): 52700 nM; IC50 ([1]; resistant Lineage 3): > 100000 nM; Pf20S β5 activity reduced [3]: 45%; Pf20S β2 activity reduced [5]: 29%; Pf20S β1 activity reduced [6]: 16%; sensitization to ART ([7]; co-treatment with ART and 0.5 nM of the compound): 2 fold; sensitization to ART ([7]; co-treatment with ART and 1 nM of the compound): 3 fold
CCCCCC(=O)N[C@H](C(=O)N[C@@H](CCCC)C(=O)N[C@@H](CC(C)C)C(=O)[C@@]1(C)CO1)C(C)C [Analog 1, (S)-2-((S)-2-hexanamido-3-methylbutanamido)-N—((S)-4-methyl-1-((R)-2-methyloxiran-2-yl)-1-oxopentan-2-yl)hexanamide]	4.11 ± 0.077 nM	3740 nM	2290 nM	134 ± 86.7 nM		loss in potency to c20S ([2]; kinact/Ki, analog 1 versus carmaphycin B): 3 fold
C[C@@H]1CC[C@H]2[C@@H](C)C(=O)O[C@@H]3O[C@@]4(C)CC[C@@H]1[C@]32OO4 [Artemisinin, artemisinin]						IC50 ([7]; Plasmodium falciparum, DD2, wild-type parasites treated with ART alone): 19.7 to 23.3 nM

Now from value to molecule, other results behind:

IC50 [9]	SMILES	Ki [2]	Ki [4]	IC50 [8]	Selectivity Index [9]	other results
68.2 ± 15.4 nM	CCCCCC(=O)NC(Cc1ccc(N)cc1)C(=O)N[C@@H](Cc1ccc(N)cc1)C(=O)N[C@@H](Cc1ccccc1)C(=O)[C@@]1(C)CO1 (stereo in doubt) [Analog 13, N—((R)-3-(4-aminophenyl)-1-(((S)-3-(4-aminophenyl)-1-(((S)-1-((R)-2-methyloxiran-2-yl)-1-oxo-3-phenylpropan-2-yl)amino)-1-oxopropan-2-yl)amino)-1-oxopropan-2-yl)hexanamide]			952 ± 275 nM	13.96	
59.6 ± 15.4 nM	CCCCCC(=O)NC(Cc1ccc(N)cc1)C(=O)N[C@@H](Cc1ccc(N)cc1)C(=O)N[C@@H](CC(C)C)C(=O)[C@@]1(C)CO1 (stereo in doubt) [Analog 12, N—((R)-3-(4-aminophenyl)-1-(((S)-3-(4-aminophenyl)-1-(((S)-4-methyl-1-((R)-2-methyloxiran-2-yl)-1-oxopentan-2-yl)amino)-1-oxopropan-2-yl)amino)-1-oxopropan-2-yl)hexanamide]			0.91 ± 0.25 nM	0.02	
